Experimental data from patent publication US20230399360A1, “TERLIPRESSIN-OCTADECANEDIOIC ACID CONJUGATE FOR VASOCONSTRICTIVE THERAPY” (Northwestern University, priority 2019, published 2023).
Bridge positions count the residues as written; N and C are the ends. Peptide text beside a SMILES is read from it. * marks the point of attachment. C18 diacid = O=C(O)CCCCCCCCCCCCCCCCC(=O)*

Columns and labels:
[1] = biological target: T1, V1 receptor (Homo sapiens, UniProt P37288); test: Calcium influx assay (Fluo-4) in primary human aortic smooth muscle cells; assay type: cell-based; settings: 10^-8 to 10^-4 M, fluorescence over 5 min
T1 construct: Primary human aortic smooth muscle cells (ATCC, PCS-100-012 cell line) were cultured in vascular cell basal medium; host or cells: primary human aortic smooth muscle cells
T1 sequence (P37288 whole entry): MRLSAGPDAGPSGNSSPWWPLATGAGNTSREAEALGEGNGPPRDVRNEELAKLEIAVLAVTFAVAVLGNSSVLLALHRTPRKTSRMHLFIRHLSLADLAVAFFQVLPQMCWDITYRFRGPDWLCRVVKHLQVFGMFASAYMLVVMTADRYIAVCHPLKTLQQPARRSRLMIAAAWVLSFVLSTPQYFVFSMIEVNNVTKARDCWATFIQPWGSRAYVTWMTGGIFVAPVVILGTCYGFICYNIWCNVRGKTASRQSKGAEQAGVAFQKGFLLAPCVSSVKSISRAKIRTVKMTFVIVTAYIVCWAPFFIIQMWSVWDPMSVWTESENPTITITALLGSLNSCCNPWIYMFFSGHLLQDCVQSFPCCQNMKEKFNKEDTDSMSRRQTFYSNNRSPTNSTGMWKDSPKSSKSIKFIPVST
Experimental: Primary human aortic smooth muscle cells (ATCC, PCS-100-012 cell line) were cultured in vascular cell basal medium supplemented with rhFGF-basic 5 ng/mL, rh insulin 5 μg/mL, ascorbic acid 50 μg/mL, L-glutamine 10 mM, rh EGF 5 ng/mL, fetal bovine serum 5%.
Calcium influx assays were performed using Fluo-4 direct calcium assay kit (ThermoFisher) on cells between passage numbers 3 to 6. To this end, cells were passaged and plated in a 96-well black tissue culture plate in a concentration of 10,000 cells per well followed by incubation in 37° C. and 5% CO2 for 48 hours. Cells were loaded with the dye and incubated for 1 hr at 37° C. and 5% CO2. Then, terlipressin peptide or terlipressin-ODDA was added to the wells in concentrations ranging from 10^−8 to 10^−4 M, and fluorescence was measured immediately on a Perkin Elmer EnSpire 2300 plate reader. Signal was measured at 530 nm following excitation at 488 nm at 999 time points over a 5 min period.

[2] = Non-invasive tail-cuff systolic blood pressure measurement in mice; assay type: in vivo, C57BL/6 mice; settings: for increase in systolic blood pressure: C57BL mice, intraperitoneal injection, 0.1 to 10 μg/gr body weight, 20 minutes of measurement, compared with PBS vehicle
[3] = mouse, in vivo
Experimental: (§1) Blood samples were drawn from the animals (approximately 100 μl) at different time points (1 hr, 3 hr, 6 hr, 24 hr) following the injection. The plasma was separated from the whole blood by centrifugation at 7,000 RPM for 10 minutes and the supernatant was transferred to a new tube. To separate the peptides or peptide conjugates from the plasma proteins, the proteins were denatured using a 7M guanidinium hydrochloride solution mixed 1:1 with the plasma and incubated at room temperature for 15 minutes. Subsequently, to the solution was diluted 10-fold with cold ethanol and the samples were incubated at −20° C. After 1 hour incubation the samples were centrifuged at 10,000 RPM for 10 minutes to precipitate the proteins, and the supernatant was transferred to a new tube. Samples were kept at −80° C. until analyzed.
(§2) 5-20 μl of the ethanol solution were injected to a QTRAP 6500+LC-MS/MS system (SCIEX) for detecting the drug concentration. Mass spectra were obtained and the areas under the curves were evaluated against a calibration curve made formerly.
(§3) Blood pressure measurements were taken for the first 20 minutes following drug injection, and subsequently blood samples were drawn at 1, 3, 6 and 24 hours.

[4] = in vivo; settings: mouse
Experimental: as §1, §2, §3

[5] = human, in vivo; cited from earlier work
[6] = listed as terlipressin conjugate
[7] = mice, systolic blood pressure vs baseline (FIG. 8)

Compound	activation of smooth muscle cells indicated by influx of intracellular calcium ([1]; listed as conjugate)	activation of smooth muscle cells indicated by influx of intracellular calcium [1, 6]	activation of smooth muscle cells indicated by influx of intracellular calcium ([1]; listed as terlipressin conjugates)	increase in systolic blood pressure [2]	increase in systolic blood pressure ([2]; listed as C18 ODDA-terlipressin conjugates)	increase in systolic blood pressure ([2]; listed as ODDA-terlipressin conjugates)	increase in systolic blood pressure [2, 6]	course of systolic blood pressure over time after injection [2, 7]	detection in plasma by LC-MS-MS [3]	half-lifetime in plasma [3]	half-life [4] [h]	time of peak in measured blood pressure following the injection [2, 7] [min]	half life following IV administration [5]
NCCCCC(NC(=O)C1CCCN1C(=O)C1CSSCC(NC(=O)CNC(=O)CNC(=O)CNC(=O)CCCCCCCCCCCCCCCCC(=O)O)C(=O)NC(Cc2ccc(O)cc2)C(=O)NC(Cc2ccccc2)C(=O)NC(CCC(N)=O)C(=O)NC(CC(N)=O)C(=O)N1)C(=O)NCC(N)=O (stereo not shown) [C18-terlipressin, octadecanedioic acid-terlipressin] ({C18 diacid}-GGGCYFQNCPKG-NH2; disulfide 4-9; configuration not given here)	can stimulate vasocontraction in cultured smooth muscle cells	can stimulate response in cultured smooth muscle cells	can bind to and activate smooth muscle cells	clear increase in pressure	increase the systolic blood pressure	increase the systolic blood pressure	Rise in blood pressure was observed	more stable pressure over time	very sharp and clear peaks	about 1 hour	~1	–	–
NCCCC[C@H](NC(=O)[C@@H]1CCCN1C(=O)[C@@H]1CSSC[C@H](NC(=O)CNC(=O)CNC(=O)CN)C(=O)N[C@@H](Cc2ccc(O)cc2)C(=O)N[C@@H](Cc2ccccc2)C(=O)N[C@@H](CCC(N)=O)C(=O)N[C@@H](CC(N)=O)C(=O)N1)C(=O)NCC(N)=O [terlipressin, Terlipressin] (H-GGGCYFQNCPKG-NH2; disulfide 4-9)	–	–	–	clear increase in pressure	–	–	–	continuous drop in pressure	no terlipressin was detected at all	–	–	5	less than 6 minutes
